The results in this text go back to PMC5323132, “Targeting prohibitins induces apoptosis in acute myeloid leukemia cells” (Oncotarget, 2016).

Molecules are shown by their SMILES. Where “and” joins values, the source holds several entries; their conditions need not be identical. Equal values may be shown once. Read-outs that look alike come from different tables or passages of the source.

The test system of data set [1] is U-937 cells. The data set can be described thus: Viability by phosphatidylserine exposure (annexin V) flow cytometry. Type of data set: cell-based, human. As to conditions: for viability at 5 µM: Homo sapiens, read-out: Viability (%) (annexin V negative cells). The method, then: (§1) Cell viability was assessed by phosphatidylserine exposure and measured as the percentage of annexin V-negative cell population. […] Occasionally, 3.75 μL PI were added after annexin V staining and immediately before acquisition to measure the percentage of annexin V^−/PI^− live cells. In AML samples with infiltration lower than 80% blasts, double staining with anti-CD33 or anti-CD34, and annexin V was performed. In brief, cells were washed in ABB and incubated in 50 μL ABB containing 0.5 μL anti-CD33 or anti-CD34 for 10 min in the dark and thereafter stained with annexin V, as previously mentioned. Cells were acquired using the FACSCanto^TM II flow cytometer (Becton Dickinson, Franklin Lakes, NJ, USA) and data of bulk leukemic/normal and CD33^+- or CD34^+-gated leukemic/normal progenitor cells were analyzed using the FACSDiva^TM software (Becton Dickinson). […] Patient samples were considered as “sensitive” to fluorizoline when cell viability was lower than 80% after incubation with 20 μM during 48 hours.

The subject of data set [2] is CD11b in U-937 cells. Kind of data set: Differentiation assay, CD11b surface expression by flow cytometry. Type of data set: cell-based. As to conditions: Homo sapiens, 48 hours, read-out: CD11b surface marker expression, fold induction compared to DMSO-treated cells. As for the experimental part:
(§2) Myeloid maturation induction was assessed by cell surface marker expression analysis. U-937 and primary AML cells were treated as indicated for cell viability assays. After 24 and 48 hours of incubation cells were collected and stained in 50 μL PBS buffer containing 2 mM EDTA and 0.5% bovine serum albumin (BSA) with 0.5 μL anti-human CD11b for 10 min in the dark and then diluted with buffer to a final volume of 150 μL. In parallel, cell viability was analyzed by annexin V staining in separated tubes. Surface expression of the antigen was analyzed by flow cytometry. In these experiments vehicle-treated cells were also included in order to discard DMSO-induced myeloid differentiation.

In data set [3] the test system is CD11b in de novo AML primary samples. Described as above. Type of data set: cell-based. To be noted: Homo sapiens, 48 hours, read-out: CD11b surface marker expression, fold induction compared to DMSO-treated cells. The method, then: as §2
Data set [4] relates to CD34+ population of AML specimens. Kind of data set: Ex vivo viability (annexin V) on CD34+ population of AML specimens. The class given is cell-based, human. To be noted: six AML specimens, 48 hours. The method, then: (§3) Cell viability was assessed by phosphatidylserine exposure and measured as the percentage of annexin V-negative cell population. After incubation of 1.25 × 10^5 cells with the indicated factors and times, cells were then washed in annexin-binding buffer (ABB) and incubated in 100 μL ABB with 0.5 μL annexin V-APC for 10 min in the dark and then diluted with ABB to a final volume of 150 μL. Occasionally, 3.75 μL PI were added after annexin V staining and immediately before acquisition to measure the percentage of annexin V^−/PI^− live cells. In AML samples with infiltration lower than 80% blasts, double staining with anti-CD33 or anti-CD34, and annexin V was performed. In brief, cells were washed in ABB and incubated in 50 μL ABB containing 0.5 μL anti-CD33 or anti-CD34 for 10 min in the dark and thereafter stained with annexin V, as previously mentioned. Cells were acquired using the FACSCanto^TM II flow cytometer (Becton Dickinson, Franklin Lakes, NJ, USA) and data of bulk leukemic/normal and CD33^+- or CD34^+-gated leukemic/normal progenitor cells were analyzed using the FACSDiva^TM software (Becton Dickinson). Half-maximal lethal dose (LD50) was defined as the concentration of drug required to reduce the cell viability by 50%. Patient samples were considered as “sensitive” to fluorizoline when cell viability was lower than 80% after incubation with 20 μM during 48 hours.

For data set [5], the system named is primary AML cells (BMMNC or PBMNC from AML patients). Kind of data set: Ex vivo viability (annexin V) of primary AML cells. The class given is cell-based, human. The method, then: PBMNC and BMMNC were isolated by centrifugation on a Biocoll (Biochrom AG, Berlin, Germany) gradient and cryopreserved in liquid nitrogen in the presence of 10% dimethyl sulfoxide (DMSO) (Sigma-Aldrich Inc, St Louis, MO, USA).
as §1

Data set [6] concerns normal BMMNC and normal hematopoietic stem cells (PBSC). Kind of data set: Ex vivo viability (annexin V) of normal hematologic cells. Type of data set: cell-based, human. To be noted: for median LD50: normal cells. As for the experimental part: (§4) Normal BMMNC was obtained from apheresis-collected granulocyte colony-stimulating factor (G-CSF)-mobilized progenitor-cell from PB of 3 healthy donors were used as a source of normal CD34^+ cells.
as §1

Assay in data set [7]: as above
The class given is cell-based, human. As to conditions: human, normal BMMNC and normal hematopoietic stem cells (PBSC); normal cells, 20 μM, 24 hours; read-out: viable cells (percentage of viability of untreated cells). As for the experimental part: as §4, §1

The subject of data set [8] is U-937 cells. The data set can be described thus: MTT cell viability assay. Type of data set: cell-based. To be noted: Homo sapiens, read-out: IC50 (half-maximal inhibitory concentration), MTT. The method, then: (§5) HL-60 and U-937 cells (1.25 × 10^5 cells/well) were incubated in the absence or in the presence of the indicated factors, in a final volume of 250 μL. After 24 or 48 hours, 25 μL MTT reagent (prepared at 5 mg/mL in phosphate-buffered saline (PBS)) was added to each well for an additional 3 hours. The blue MTT formazan precipitate was dissolved in 250 μL isopropanol:1 M HCl (24:1). Then, 100 μL of this cell lysate were plated in a 96-well plate in triplicate and the absorbance values at 570 nm were measured on a multiwell plate reader. The half-maximal inhibitory concentration (IC50) was defined as the concentration of drug required to reduce the MTT metabolization ability by 50%.
Background: Tetrazolium assays rely on reduction of a dye to a coloured formazan, in cell work by metabolically active cells.

The subject of data set [9] is HL-60 cells. The data set can be described thus: MTT cell viability assay. Type of data set: cell-based. To be noted: Homo sapiens, read-out: IC50 (half-maximal inhibitory concentration), MTT. As for the experimental part:
as §5

The subject of data set [10] is CD34- population of AML specimens. Kind of data set: Ex vivo viability (annexin V) on CD34- population of AML specimens. The class given is cell-based, human. As to conditions: six AML specimens, 48 hours. As for the experimental part:
as §3

Data set [11] has as its system NOXA mRNA in U-937 cells. Kind of data set: RT-MLPA apoptosis-related gene expression. Type of data set: cell-based. To be noted: Homo sapiens. As for the experimental part:
RNA was isolated from cultured 3–5 × 10^6 cells by the RNeasy Micro kit (Qiagen GmbH, Hilden, Germany) according to the manufacturer's protocol. RNA was analyzed by RT-MLPA using SALSA MLPA KIT R011-C1 Apoptosis mRNA from MRC-Holland (Amsterdam, The Netherlands) for the simultaneous detection of 40 messenger RNA molecules, including apoptosis-related genes. In brief, RNA samples (200 ng total RNA) were first reverse transcribed using a gene-specific primer mix. The resulting cDNA was annealed overnight at 60°C to the RT-MLPA probe mix. Annealed oligonucleotides were ligated by adding Ligase-65 (MRC-Holland) and incubated at 54°C for 15 min. Ligation products were amplified by PCR (35 cycles, 30 s at 95°C; 30 s at 60°C, and 1 min at 72°C) with one unlabeled and one FAM-labeled primer. The final PCR fragments amplified were separated by capillary electrophoresis on a 96-capillary ABI-Prism® 3730XL Genetic Analyzer (Applied Biosystems/Hitachi, Carlsbad, CA, USA). Peak area and height were measured using GeneMapper^TM v3.0 analysis software (Applied Biosystems). Ratios of individual peaks relative to the sum of all peaks were calculated, resulting in the relative abundance of mRNAs of the genes of interest.

The subject of data set [12] is HL-60 cells. The data set can be described thus: Viability by phosphatidylserine exposure (annexin V) flow cytometry. Type of data set: cell-based, human. As to conditions: 48 hours. As for the experimental part:
as §3
(In general: In flow cytometry, cells or beads pass a laser one at a time.)

Data set [13] has as its system U-937 cells. The data set can be described thus: Methylcellulose colony-forming unit (CFU) assay. As to conditions: pretreated 24 hours, n = 4. The class given is cell-based, human. As for the experimental part: (§6) The analysis of the clonogenic capacity after exposition to the fluorizoline was performed using a methylcellulose-based medium with recombinant cytokines and erythropoietin (EPO) for human hematopoietic progenitor cells (MethoCult^TM H4034 Optimum, StemCell Technologies). U-937 cells and primary AML cells were pretreated for 24 hours with the indicated factors, as previously mentioned. Then, cells (1 × 10^3 U-937 cells or 50 × 10^3 primary AML cells) were diluted in 100 μL serum-free IMDM with 25 mM HEPES, homogeneously mixed with 1 mL MethoCult^TM medium, seeded in duplicate cultures and maintained at 37°C with 5% CO2 in air in a humidified atmosphere. Colonies (CFU) were screened based on morphology and cellularity at day 10 (U-937 cells) or day 14 (primary AML cells) using an inverted microscope. A colony was defined as a cluster of > 40 cells.

The subject of data set [14] is primary AML cells. Kind of data set: Methylcellulose colony-forming unit (CFU) assay. To be noted: pretreated 24 hours, n = 5. Type of data set: cell-based, human. As for the experimental part: as §6
[15] abbreviates: Figure 5C, 24 h, fluorizoline 5 μM, Q-VD-OPh 20 μM pre-incubated 30 min.

For the compound `CC(C)[C@H](NC(=O)c1ccc2ccccc2n1)C(=O)N[C@@H](CC(=O)O)C(=O)COc1c(F)cccc1F` [Q-VD-OPh, reference compound], the “Viability (%) (annexin V negative cells)” value in data set [1] (setting [15]) amounted to 95%.
With `FC1(F)N=C(c2ccc(Cl)cc2)SC1(F)c1ccc(Cl)cc1` (centres unmarked) [fluorizoline], in data set [1] (10 µM fluorizoline, 24 h, annexin V/PI double staining), the “annexin V-/PI+ population” value is given as “less than 6%”. Moreover, the “mean LD50, annexin V” value in data set [1] (24 hours) is “above 40 μM”; in data set [1] (48 hours) it was 14 µM. For the same compound, the viability at 5 µM was 93% in [1] (Figure 5B, 5 μM, 4 h); 92% in data set [1] (Figure 5B, 5 μM, 8 h); 64% in [1] (Figure 5B, 5 μM, 24 h); 63% in [1] (setting [15]). In addition, the fold induction at 40 µM in [2] stood at 12.1. In addition, in data set [3], the fold induction at 20 µM was determined as 1.5. Also, the LD50 in [4] is 4.5 ± 2.3 µM; in data set [10], “higher than 20 μM”. Moreover, the “median LD50” value in data set [5] (24 hours, sensitive patient samples (n = 15)) is 8.0 ± 1.7 µM; in data set [5] (samples at relapse (n = 6), 24 hours), 10.3 ± 4.0 µM; in data set [5] (samples at relapse (n = 6), 48 hours) it was 5.4 ± 1.6 µM; in [6] (24 hours), “above 20 μM”; in data set [6] (48 hours) it was “above 20 μM”. For the same compound, in data set [5] (48 hours, n = 21), the “mean LD50” value was found to be 5.3 ± 0.8 µM. The viability at 10 µM in data set [5] (Homo sapiens, 2 h, Figure 6B, patient #14, 10 μM, 2 h, read-out: Viability (%) (annexin V negative cells)) was found to be 95%; in [5] (Homo sapiens, 4 h, Figure 6B, patient #14, 10 μM, 4 h, read-out: Viability (%) (annexin V negative cells)), 92%; in data set [5] (Homo sapiens, 8 h, Figure 6B, patient #14, 10 μM, 8 h, read-out: Viability (%) (annexin V negative cells)), 87%; in [5] (Homo sapiens, 8 h, Figure 6C, patient #13, 10 μM, 8 h, read-out: Viability (%) (annexin V negative cells)), 35%; in data set [5] (Homo sapiens, 8 h, Figure 6C, patient #16, 10 μM, 8 h, read-out: Viability (%) (annexin V negative cells)) it was 50%; in data set [5] (Homo sapiens, 8 h, Figure 6C, patient #18, 10 μM, 8 h, read-out: Viability (%) (annexin V negative cells)) it was 80%. In addition, the viability at 10 µM was 43% in data set [5] (Homo sapiens, 8 h, Figure 6C, patient #20, 10 μM, 8 h, read-out: Viability (%) (annexin V negative cells)); 81% in data set [5] (Homo sapiens, 12 h, Figure 6B, patient #14, 10 μM, 12 h, read-out: Viability (%) (annexin V negative cells)); 35.5% in [5] (Homo sapiens, 24 h, 10 μM, 24 hours, n = 20 AML samples, untreated 75.8% ± 2.9%, read-out: cell viability (annexin V negative cells)); 25% in data set [5] (Homo sapiens, Figure 6D, patient #20, 24 h, fluorizoline 10 μM, Q-VD-OPh 20 μM pre-incubated 30 min, read-out: Viability (%) (annexin V negative cells)). The viability at 2.5 µM in data set [5] (Homo sapiens, 8 h, Figure 6C, patient #21, 2.5 μM, 8 h, read-out: Viability (%) (annexin V negative cells)) came out at 37%. Also, the “LD50(μM) 24 h” value in [6] (Donor No. 1-9, 24 h) is > 20 µM and 16 µM. The “LD50(μM) 48 h” value in [6] (Donor No. 1-9, 48 h) was > 20 µM and 8 µM and 13 µM. The viability at 24 h, 20 µM in data set [7] worked out at 68.6%. In addition, the IC50 in data set [8] (U-937, 24 h) worked out at 7 µM; in [8] (U-937, 48 h) it was 5 µM; in data set [9] (HL-60, 24 h), 8 µM; in [9] (HL-60, 48 h) it was 6 µM. Besides, the fold induction at 10 µM in data set [11] (4 hours) amounted to 3.5; in data set [11] (8 hours), 6.6; in data set [11] (24 hours), 3.1. Moreover, the “LD50 (half-maximal lethal dose), annexin V” value in [12] stood at 40 µM. For the same compound, the “mean CFU respect to untreated cells” value in [13] (5 μM) is 49.9 ± 5%; in data set [13] (10 μM), 1.9 ± 1%; in [14] (2.5 μM), 39.9 ± 5%; in [14] (10 μM), 5.3 ± 1.5%.

For orientation: viability means the share of living cells, or the viability signal relative to a control.
